Holding throughout (experiment): JAK Caliper Enzyme Assay at 1 mM ATP
Holding throughout (settings): pH 7.4; 25 °C

Experiment [1] has as its target Non-receptor tyrosine-protein kinase TYK2 (Homo sapiens, UniProt P29597). The procedure:
(§1) Test article was solubilized in dimethyl sulfoxide (DMSO) to a stock concentration of 30 mM. An 11-point half log dilution series was created in DMSO with a top concentration of 600 μM. […] The compound plates were diluted 1 to 60 resulting in a top final assay compound concentration of 10 μM and a 2% DMSO concentration.Test article and assay controls were added to a 384-well plate. Reaction mixtures contained 20 mM HEPES, pH 7.4, 10 mM magnesium chloride, 0.01% bovine serum albumin (BSA), 0.0005% Tween 20, 1 mM ATP and 1 μM peptide substrate. […] Enzyme concentrations and incubation times were optimized for each new enzyme preps and were modified slightly over time to ensure 20%-30% phosphorylation. The assays were stopped with a final concentration of 10 mM EDTA, 0.1% Coating Reagent and 100 mM HEPES, pH=7.4. The assay plates were placed on a Caliper Life Science Lab Chip 3000 (LC3000) instrument, and each well was sampled using appropriate separation conditions to measure the unphosphorylated and phosphorylated peptide.

In experiment [2] the target is Tyrosine-protein kinase JAK1 (Homo sapiens, UniProt P23458). The procedure:
as §1

Experiment [3] has as its target Tyrosine-protein kinase JAK2 (Homo sapiens, UniProt O60674). The procedure: as §1
Experiment [4] deals with T1, Tyrosine-protein kinase JAK3 (Homo sapiens, UniProt P52333).
T1 sequence (P52333 whole entry): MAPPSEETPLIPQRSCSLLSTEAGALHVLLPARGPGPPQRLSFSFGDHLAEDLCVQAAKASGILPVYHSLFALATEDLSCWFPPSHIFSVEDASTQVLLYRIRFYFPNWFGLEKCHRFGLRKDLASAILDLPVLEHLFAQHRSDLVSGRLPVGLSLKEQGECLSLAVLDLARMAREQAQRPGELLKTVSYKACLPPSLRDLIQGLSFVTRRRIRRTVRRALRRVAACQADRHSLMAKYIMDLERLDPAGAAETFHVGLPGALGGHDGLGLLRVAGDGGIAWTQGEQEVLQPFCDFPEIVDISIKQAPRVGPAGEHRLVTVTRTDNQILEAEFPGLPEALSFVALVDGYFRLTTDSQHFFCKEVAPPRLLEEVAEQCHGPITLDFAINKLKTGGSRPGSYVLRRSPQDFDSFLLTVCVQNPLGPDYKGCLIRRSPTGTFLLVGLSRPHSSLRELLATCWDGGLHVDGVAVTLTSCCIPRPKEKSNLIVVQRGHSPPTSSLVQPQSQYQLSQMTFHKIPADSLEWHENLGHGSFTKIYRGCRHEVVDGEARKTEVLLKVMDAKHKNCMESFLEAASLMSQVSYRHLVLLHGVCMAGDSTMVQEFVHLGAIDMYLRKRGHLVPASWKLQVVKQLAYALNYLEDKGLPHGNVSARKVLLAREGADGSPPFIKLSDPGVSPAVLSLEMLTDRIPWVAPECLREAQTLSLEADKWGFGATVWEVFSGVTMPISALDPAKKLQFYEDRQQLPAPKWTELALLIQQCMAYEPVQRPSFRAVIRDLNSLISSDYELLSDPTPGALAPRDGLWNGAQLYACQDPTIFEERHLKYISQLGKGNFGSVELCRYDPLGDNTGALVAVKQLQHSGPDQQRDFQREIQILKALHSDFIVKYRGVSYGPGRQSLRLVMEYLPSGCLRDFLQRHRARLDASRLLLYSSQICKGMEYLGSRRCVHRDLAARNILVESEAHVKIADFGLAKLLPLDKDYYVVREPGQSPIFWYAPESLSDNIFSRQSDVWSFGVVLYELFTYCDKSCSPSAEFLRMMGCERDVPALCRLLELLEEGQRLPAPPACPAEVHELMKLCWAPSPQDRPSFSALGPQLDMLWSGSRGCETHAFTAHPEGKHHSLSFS
The procedure: as §1

Sequence of Non-receptor tyrosine-protein kinase TYK2 (P29597 whole entry): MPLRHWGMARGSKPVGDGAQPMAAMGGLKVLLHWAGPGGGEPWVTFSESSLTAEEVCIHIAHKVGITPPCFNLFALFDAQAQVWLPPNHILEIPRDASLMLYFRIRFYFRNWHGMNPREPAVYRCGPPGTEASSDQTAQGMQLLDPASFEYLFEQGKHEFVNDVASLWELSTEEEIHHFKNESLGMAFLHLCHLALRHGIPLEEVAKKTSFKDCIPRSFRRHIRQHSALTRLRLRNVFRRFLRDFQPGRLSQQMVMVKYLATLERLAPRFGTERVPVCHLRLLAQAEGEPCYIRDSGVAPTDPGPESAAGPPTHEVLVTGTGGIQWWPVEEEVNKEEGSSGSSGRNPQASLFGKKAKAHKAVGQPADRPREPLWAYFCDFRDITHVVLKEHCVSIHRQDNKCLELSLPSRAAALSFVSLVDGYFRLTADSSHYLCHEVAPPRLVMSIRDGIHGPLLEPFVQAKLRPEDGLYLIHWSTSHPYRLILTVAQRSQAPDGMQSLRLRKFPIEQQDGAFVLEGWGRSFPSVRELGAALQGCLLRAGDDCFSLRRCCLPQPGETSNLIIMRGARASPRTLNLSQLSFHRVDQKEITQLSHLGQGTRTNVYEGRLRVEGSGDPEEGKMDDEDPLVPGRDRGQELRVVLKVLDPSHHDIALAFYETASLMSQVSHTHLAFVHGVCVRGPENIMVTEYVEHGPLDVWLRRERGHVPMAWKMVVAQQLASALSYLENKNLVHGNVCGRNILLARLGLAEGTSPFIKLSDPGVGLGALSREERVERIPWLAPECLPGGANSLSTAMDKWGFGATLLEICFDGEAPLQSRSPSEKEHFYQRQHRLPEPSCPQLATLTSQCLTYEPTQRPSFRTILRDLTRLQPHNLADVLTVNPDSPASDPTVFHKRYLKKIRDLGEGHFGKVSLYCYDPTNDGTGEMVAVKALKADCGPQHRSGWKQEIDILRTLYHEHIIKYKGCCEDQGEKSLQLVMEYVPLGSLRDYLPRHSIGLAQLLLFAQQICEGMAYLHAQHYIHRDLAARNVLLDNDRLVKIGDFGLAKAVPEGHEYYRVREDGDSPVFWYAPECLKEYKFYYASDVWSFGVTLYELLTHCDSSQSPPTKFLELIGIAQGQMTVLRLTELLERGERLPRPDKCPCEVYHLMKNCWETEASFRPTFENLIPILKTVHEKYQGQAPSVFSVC
Sequence of Tyrosine-protein kinase JAK1 (P23458 whole entry): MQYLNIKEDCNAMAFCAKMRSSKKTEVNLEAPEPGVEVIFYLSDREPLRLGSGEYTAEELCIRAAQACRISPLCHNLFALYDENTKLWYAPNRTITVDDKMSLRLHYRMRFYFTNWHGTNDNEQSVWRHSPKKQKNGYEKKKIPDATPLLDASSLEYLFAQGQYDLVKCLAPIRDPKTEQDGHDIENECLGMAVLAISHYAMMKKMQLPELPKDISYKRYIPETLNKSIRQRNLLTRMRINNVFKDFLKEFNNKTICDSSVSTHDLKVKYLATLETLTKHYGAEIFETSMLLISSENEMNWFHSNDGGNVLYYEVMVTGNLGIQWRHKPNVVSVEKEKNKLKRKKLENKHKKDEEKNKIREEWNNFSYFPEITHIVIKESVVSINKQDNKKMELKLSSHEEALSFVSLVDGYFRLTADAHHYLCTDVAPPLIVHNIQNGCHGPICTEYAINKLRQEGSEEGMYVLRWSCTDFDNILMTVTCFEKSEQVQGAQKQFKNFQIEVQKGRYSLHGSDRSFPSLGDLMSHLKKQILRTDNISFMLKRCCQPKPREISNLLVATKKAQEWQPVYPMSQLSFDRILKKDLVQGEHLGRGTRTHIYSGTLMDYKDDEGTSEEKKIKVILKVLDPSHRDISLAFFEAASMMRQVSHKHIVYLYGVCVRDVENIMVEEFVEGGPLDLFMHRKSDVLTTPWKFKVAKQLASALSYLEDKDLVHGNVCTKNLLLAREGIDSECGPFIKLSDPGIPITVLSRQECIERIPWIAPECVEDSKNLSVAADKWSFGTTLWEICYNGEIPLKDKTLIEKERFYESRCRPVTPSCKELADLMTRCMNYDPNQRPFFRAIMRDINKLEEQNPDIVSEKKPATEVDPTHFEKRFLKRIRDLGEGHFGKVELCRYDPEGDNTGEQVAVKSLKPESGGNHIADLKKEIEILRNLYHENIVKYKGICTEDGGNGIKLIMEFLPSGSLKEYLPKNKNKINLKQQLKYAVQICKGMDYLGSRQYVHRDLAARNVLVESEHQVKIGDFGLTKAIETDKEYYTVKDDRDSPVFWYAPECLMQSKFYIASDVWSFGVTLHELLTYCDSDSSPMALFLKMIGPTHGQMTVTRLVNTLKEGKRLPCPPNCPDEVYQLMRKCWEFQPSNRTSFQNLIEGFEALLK
Sequence of Tyrosine-protein kinase JAK2 (O60674 whole entry): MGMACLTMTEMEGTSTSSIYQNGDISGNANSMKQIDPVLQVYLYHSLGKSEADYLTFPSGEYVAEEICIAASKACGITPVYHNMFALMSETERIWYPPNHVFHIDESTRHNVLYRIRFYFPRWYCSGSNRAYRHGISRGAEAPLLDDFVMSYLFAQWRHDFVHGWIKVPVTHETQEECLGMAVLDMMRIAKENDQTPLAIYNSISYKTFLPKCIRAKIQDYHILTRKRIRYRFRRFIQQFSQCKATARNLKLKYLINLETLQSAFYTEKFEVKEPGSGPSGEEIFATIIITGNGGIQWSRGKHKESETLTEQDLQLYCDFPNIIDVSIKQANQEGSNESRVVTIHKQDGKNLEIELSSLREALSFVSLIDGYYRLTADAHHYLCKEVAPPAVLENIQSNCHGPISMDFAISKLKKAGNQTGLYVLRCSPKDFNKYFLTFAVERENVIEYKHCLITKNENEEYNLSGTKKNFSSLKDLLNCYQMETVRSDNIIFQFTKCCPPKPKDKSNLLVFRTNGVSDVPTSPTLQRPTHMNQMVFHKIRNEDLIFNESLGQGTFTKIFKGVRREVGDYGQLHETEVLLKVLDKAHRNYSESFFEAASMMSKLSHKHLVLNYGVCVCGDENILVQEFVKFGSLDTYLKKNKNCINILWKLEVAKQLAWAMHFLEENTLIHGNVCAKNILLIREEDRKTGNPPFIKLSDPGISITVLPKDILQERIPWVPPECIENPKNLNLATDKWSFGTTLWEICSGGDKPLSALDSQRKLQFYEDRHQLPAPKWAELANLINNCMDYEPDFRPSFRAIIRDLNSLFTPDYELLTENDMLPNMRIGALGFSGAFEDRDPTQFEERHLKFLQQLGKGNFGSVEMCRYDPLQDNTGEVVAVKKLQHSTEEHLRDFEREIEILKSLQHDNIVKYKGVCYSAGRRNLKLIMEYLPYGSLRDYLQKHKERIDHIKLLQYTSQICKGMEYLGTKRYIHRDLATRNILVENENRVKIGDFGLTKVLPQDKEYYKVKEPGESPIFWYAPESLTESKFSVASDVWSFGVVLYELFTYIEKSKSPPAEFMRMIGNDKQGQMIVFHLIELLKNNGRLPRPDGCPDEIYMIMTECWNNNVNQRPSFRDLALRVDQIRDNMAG

Take `CCN(c1ccc(O)cc1CNc1nc(-c2cc(F)c(O)cc2CC(F)(F)F)nc2[nH]nc(C(=O)NC)c12)S(=O)(=O)c1ccccc1` [US10022376, Example 75]: the IC50 in experiment [1] was 1.94 µM; in experiment [2], 0.0611 µM; in experiment [3] it was 0.321 µM; in experiment [4], 0.755 µM.
In the case of `CN(c1ccc(O)cc1CNc1nc(-c2cc(F)c(O)cc2CC(F)(F)F)nc2[nH]nc(C(N)=O)c12)S(=O)(=O)c1ccccc1` [US10022376, Example 96], the IC50 in experiment [1] amounted to 1.73 µM; in experiment [4], 0.248 µM.
For `CCN(c1ccc(O)cc1CNc1nc(-c2cc(F)c(O)cc2CC(F)(F)F)nc2[nH]nc(C(N)=O)c12)S(=O)(=O)c1ccccc1` [US10022376, Example 97], the IC50 was 2.19 µM in experiment [1] and 0.0551 µM in experiment [2].
On to `CN(c1ccccc1CNc1nc(-c2cc(F)c(O)cc2CC(F)(F)F)cc2[nH]nc(C(N)=O)c12)S(C)(=O)=O` [US10022376, Example 98], for which the IC50 in experiment [4] amounted to 0.0396 µM.
Take `CN(c1cc(O)ccc1CNc1nc(-c2cc(F)c(O)cc2CC(F)(F)F)cc2[nH]nc(C(N)=O)c12)S(C)(=O)=O` [US10022376, Example 99]: the IC50 in experiment [1] stood at 0.426 µM; in experiment [2] it was 0.0068 µM.
Consider `CNC(=O)c1n[nH]c2nc(-c3cc(F)c(O)cc3CC(F)(F)F)nc(NCc3ccccc3N(CCO)S(C)(=O)=O)c12` [US10022376, Example 100], for which the IC50 in experiment [1] worked out at 1.15 µM; in experiment [2], 0.0087 µM; in experiment [3], 0.0323 µM.
As for `CC(=O)N1CCc2[nH]c(-c3n[nH]c4nc(-c5cc(F)c(O)cc5CC(F)(F)F)nc(NCc5cc(O)ccc5N(C)S(C)(=O)=O)c34)nc2C1` [US10022376, Example 105], the IC50 turned out to be 0.014 µM in experiment [1], 0.0144 µM in experiment [3] and 0.0512 µM in experiment [4].
As for `CNC(=O)c1n[nH]c2nc(-c3cc(F)c(O)cc3CC(F)(F)F)nc(NCc3nccnc3N(C)S(C)(=O)=O)c12` [US10022376, Example 106], the values for the IC50 in experiment [1], in experiment [2] and in experiment [3] were 6.11 µM, 0.0412 µM and 0.283 µM, respectively.
Taken in the same sequence, the figures for `CN(C)CCNC(=O)N1CCc2[nH]c(-c3n[nH]c4nc(-c5cc(F)c(O)cc5CC(F)(F)F)nc(NCc5cc(O)ccc5N(C)S(C)(=O)=O)c34)nc2C1` [US10022376, Example 110] were 0.035 µM, 0.0054 µM and 0.0269 µM.
In the case of `CN(c1ccc(O)cc1CNc1nc(-c2cc(F)c(O)cc2CC(F)(F)F)cc2[nH]nc(C(=O)Nc3ccc(NCCO)nc3)c12)S(C)(=O)=O` [US10022376, Example 164], the IC50 turned out to be 0.0242 µM in experiment [1], 0.0045 µM in experiment [2], 0.0222 µM in experiment [3] and 0.091 µM in experiment [4].
Take `CN(c1ccc(O)cc1CNc1nc(-c2cc(F)c(O)cc2CC(F)(F)F)nc2[nH]nc(C(=O)Nc3ccc(NCCO)nc3)c12)S(C)(=O)=O` [US10022376, Example 169]: the 50% inhibitory concentration (IC50) was 0.306 µM in experiment [1], 0.0105 µM in experiment [2] and 0.0598 µM in experiment [4].

What is called IC50 is the concentration at which inhibition is half-maximal. High values mean weaker potency in that assay, low ones greater potency in that assay.

The record behind these values is BindingDB's records for patent US10022376 (Pfizer, 2018).
